Experimental data: patent US20080207724A1, “Use of Inhibitors of Histone Deacteylases in Combination With Compounds Acting as Nsaid for the Therapy of Human Diseases” (priority 2005, published 2008)

Key:
Cox-2 [1] = test: Cox-2 expression (Western blot / RT-PCR) in various cell types; type: cell-based, human; settings: for Expression of Cox-2 on RNA and protein level: several systems: A-549, SK-Mel, HT-29, MDA-MB-231, THP-1, primary human lymphocytes and macrophages, FIGS. 1 and 2
Procedure: In HT-29 colon carcinoma cells Cox-2 expression was induced by treatment with 100 ng/ml TNF-α for 4 h.
Cells were seeded at densities between 5×10^4 and 1×10^5 cells per well of 24 well plates. Lysis was done by removing growth medium and adding 200 μl of Laemmli sample buffer per well. 60 μl were loaded on 8% acrylamide gels and subjected to discontinuous electrophoresis. Proteins blotted onto PVDF membranes were probed with a goat-anti-Cox-2 antibody (St. Cruz, sc1747) or a mouse anti-pan-actin antibody (Ab-5, NeoMarkers).
(§1) In detail, cells were seeded at a density of 7,5×10^4 per well in 24 well plates. Supernatants were analyzed in a dilution of 1:3 in duplicates with the prostaglandin E2 EIA Kit from Cayman according to the manufacture's instructions. Bars show the mean of two values. Cell extracts were prepared by removing growth medium completely and adding of 200 μl of Laemmli Sample buffer per well. Subsequently, 60 μl were loaded on 8% acrylamide gels and subjected to discontinuous electrophoresis.

THP-1 monocytes = test: Prostaglandin secretion, Celecoxib plus HDAC inhibitor, THP-1 monocytes; type: cell-based, human; settings: in combination with Celecoxib, FIG. 4
Procedure: In parallel, Cox-2 protein levels were reduced as already described.
as §1, with “electrophoresis. Proteins blotted onto PVDF membranes which were probed with a goat anti-Cox-2 antibody (St. Cruz, scl 747) or a mouse anti-pan-actin (to analyze the expression of this control protein) antibody (Ab-5, NeoMarkers).” for “electrophoresis.”

TNF-α = test: Acute LPS-induced inflammation model, serum TNF-α ELISA; type: in vivo; settings: 3H1 mice; i.p. 1 h before LPS (50 μg per mouse); blood 1 h after LPS; VPA 400 mg/kg/d, G2M-707 1 mg/mouse/d; FIG. 6 lower panel
Procedure: To evaluate the ability of HDAC inhibitors to inhibit soluble TNF-α secretion in vivo, an acute LPS-induced inflammation model in 3H1 mice was used. The mice were injected i.p. with substances tested 1 h before the i.p. injection of LPS. Blood samples were drawn 1 h after LPS stimulus and the TNF-α levels in the serum were determined using a TNF-α ELISA assay. As shown in FIG. 6 (lower panel), VPA and G2M-707 pretreatment led to a 60% reduction in absolute TNF-α serum levels in comparison to the control mice.
In detail, mice were treated with VPA (400 mg/kg/d, n=8), G2M-701 (1 mg/mouse/d, n=4), G2M-707 (1 mg/mouse/d, n=4) or with 200 μl PBS (control, n=8) 1 h before inflammation was induced with 50 μg LPS (Sigma) per mouse. One hour after the LPS treatment, blood was taken by cardiac puncture and serum was isolated. The serum was tested in a TNF-α sandwich ELISA module from Bender MedSystems. The assay was performed as described in the manufacturer's manual. ABTS was used as a substrate and measuring was accomplished with a 96-well plate reader at a wavelength of 405 nm. Absolute OD levels at 405 nm are given.

[2] = test system: adenomas in C57BL/6J-APCmin/+ mice; test: Adenoma number in the APCmin mouse model; type: in vivo; settings: four weeks, VPA sodium salt 2×400 mg/kg/day i.p., Celecoxib 1250 ppm in diet, combination same dosages, FIG. 5A
Procedure: (§2) Control animals were injected (i.p.) with PBS. […] At sacrifice entire intestinal tracts were opened longitudinally and fixed in 10% phosphate buffered formaldehyde for 24 hours followed by ethanol-fixation in 50% ethanol for three days. […] Cyclooxygenase activity was assessed ex vivo in hepatic tissue as described (Reuter et al., 2002; BMC Cancer 2:19). Briefly, mice were euthanized 3 hours following the final dose of vehicle or drugs and a sample of liver tissue (−100 mg) was obtained. The samples were then placed into microcentrifuge tubes containing 1 ml of sodium phosphate buffer (10 mM, pH 7.4) and finely minced with scissors for 15 seconds. Samples were then incubated for 20 min at […] in a shaking water bath. After the incubation period, samples were centrifuged at 9000×g for 30 seconds and the supernatants collected. Supernatants were flash frozen in liquid nitrogen and stored at […] for subsequent determination of prostaglandin E2 content. PGE2 concentrations were determined in duplicates after 1:20 dilution of supernatants using a commercially available competitive Enzyme Immunoassay (Cayman Chemical).

[3] = test system: collagen induced arthritis in DBA/1 mice; test: Therapeutic collagen induced arthritis (CIA) model, clinical severity score; type: in vivo; settings: DBA/1 mice with CIA, 15 days; VPA 2×400 mg/kg/d i.p., G2M-707 2×1 mg/mouse/d i.p.; versus control group; FIG. 6 upper panel
Procedure: To evaluate this anti-inflammatory potency of HDAC inhibitors in a therapeutic in vivo inflammation model we applied VPA and G2M-707 to mice that had developed collagen induced arthritis (CIA).
Prednisolon, a corticosteroid drug in clinical use for RA, was used as a positive control in this study.
In detail, in this therapeutic CIA model, DBA/1 female mice of age 7 weeks were immunized with 100 μg of chicken type II collagen (Chondrex) in CFA. Development of arthritis started 21 to 28 days after immunization and reached an incidence of 93% after 6 weeks. The severity was medium to high and reached a mean score of 10.3 (maximum score 15) in untreated animals. The mice were monitored daily for signs of arthritis using an established scoring system. At the first sign of arthritis, the affected mice were assigned to a treatment group. The mice were treated for 15 days with vehicle control or VPA at 2×400 mg/kg/d i.p. or G2M-707 at 2×1 mg/mouse/d i.p. or Prednisolon at 2×20 mg/kg/d (i.p.). Clinical severity of arthritis was assessed based on the appearance of each paw and subjectively graded on a scale of 0 to 4. The scores of each limb were summed, giving a maximum severity score of 16. […] After onset of disease the animals were scored 3 times a week.

Cox-2 [4] = test: Semi quantitative RT-PCR of Cox-2 in peripheral blood lymphocytes of VPA-treated patients; type: in vivo, human; settings: patients treated with 30 mg/kg/d or 120 mg/kg/d VPA; control gene GAPDH unchanged; FIG. 1B
Procedure: Semi quantitative RT-PCR was also performed with RNA isolated form peripheral blood lymphocytes of patients treated with doses 30 mg/kg/d (Patient 1) or 120 mg/kg/d VPA (Patient 2) respectively.

prostaglandin E2 = test: Prostaglandin levels in liver extracts of APCmin mice (ex vivo cyclooxygenase activity); set-up: species or system mouse; settings: liver taken 3 hours after final dose, same treatment as adenoma study, FIG. 5b
Procedure: as §2

[5] = test system: MDA-MB-231 mammary carcinoma cells; test: Prostaglandin secretion, Celecoxib plus HDAC inhibitor, MDA-MB-231 cells; type: cell-based, human; settings: in combination with Celecoxib, FIG. 4
Procedure: as §1

COX-2 RNA = test: Semi quantitative RT-PCR of COX-2 RNA in LPS-induced THP-1 cells; type: cell-based, human; settings: THP-1 cells differentiated with TPA; 1 mM VPA or 10 μM G2M-707 over night, then 10 μg/ml LPS 6 h; FIG. 1A
Procedure: (§3) THP-1 cells were induced to differentiate by addition of 20 ng/ml TPA to the growth medium for 3d. Adherent cells were seeded at a density of 5×10^5 cells per well of a 6-well plate, and were incubated with 1 mM VPA or 10 μM G2M-707 over night (FIG. 1A). Cox-2 expression was then induced by addition of 10 μg/ml LPS for 6 h. RNA was prepared using the RNeasy Kit from Qiagen according to the manufacturer's instructions. Reverse transcription was done with 1 μg of RNA in a volume of 20 μl. 1 μl was used for each PCR reaction with specific primers for the indicated genes.

TNF-α, IFN-γ and IL-6 = test: Semi quantitative RT-PCR of cytokine RNA in LPS-induced THP-1 cells; type: cell-based, human; settings: THP-1 cells differentiated with TPA; 1 mM VPA or 10 μM G2M-707 over night, then 10 μg/ml LPS 6 h; FIG. 1A
Procedure: as §3

SMILES: CC(/C=C/C(=O)NO)=C\[C@@H](C)C(=O)c1ccc(N(C)C)cc1 [TSA, Trichostatin A]
- Expression of Cox-2 on RNA and protein level (Cox-2 [1]): downregulated
- prostaglandin levels, HDAC inhibitor added to Celecoxib (THP-1 monocytes): reduce the prostaglandin levels further

SMILES: CCCC(CCC)C(=O)O [VPA, 2-propyl-pentanoic acid]
- reduction in absolute TNF-α serum levels in comparison to the control mice (TNF-α): 60%
- Cox-2 protein levels (Cox-2 [1]; MDA-MB-231 cells, VPA together with Celecoxib, FIG. 4): reduced
- Expression of Cox-2 on RNA and protein level (Cox-2 [1]): downregulated
- number of adenomas [2]: significantly reduces
- clinical severity scores (sum score) [3]: efficiently reduced
- Cox-2 RNA in peripheral blood lymphocytes of patients (Cox-2 [4]): downregulation
- prostaglandin levels in liver extracts (prostaglandin E2): decrease
- repression of prostaglandin secretion by Celecoxib, HDAC inhibitor added [5]: dose dependently enhance
- COX-2 RNA (COX-2 RNA): downregulation
- TNF-α, IFN-γ and IL-6 RNA (TNF-α, IFN-γ and IL-6): downregulation
